Reference: US5693492A, “DNA encoding glutamate gated chloride channels” (priority 1995, dated 1997)

Target: T1, Dros GluCl (Drosophila melanogaster, UniProt Q94900, I27V/K241R)
T1 construct: Clone pDros GluCl was linearized by digestion with the restriction endonuclease SalI; expressed in transfected cells; host or cells: Xenopus laevis oocytes injected with in vitro transcribed Dros GluCl RNA
Experiment: cell-based
Settings: for Reversibility of activated current (in words): after washing drug from the bath, IVMPO4 observed for up to 10 minutes; for Sensitivity of oocytes injected with Dros GluCl RNA (in words): tested at concentrations of 1 mM or higher
Experimental: Clone pDros GluCl was linearized by digestion with the restriction endonuclease SalI. In vitro RNA was synthesized from 0.5 μg of this plasmid in a reaction containing 40 mM Tris-HCl, pH 7.5; 6 mM MgCl2; 2 mM Spermidine; 10 mM NaCl; 10 mM DTT; 0.05 mg/ml Bovine Serum Albumin; 2 units/ul RNasin; 800 μM each ATP, CTP, and UTP; 200 μMGTP; 800 μM m7G(5')ppp(5')G; 5 μCi ^32 P-CTp; and 50 units T3 RNA polymerase in a final volume of 50 μl. The reaction was incubated for 3 hours at 37° C. followed by an additional 15 minutes incubation with 20 units RNase free DNase and extraction with phenol, phenol:chloroform, and chloroform. The RNA was precipitated with 1/10 volume 3M sodium acetate and 2.5 volumes 100% ethanol, stored at -20° C. for 16 hours, washed with 70% ethanol and resuspended in water at a concentration of 1 mg/ml for injection into Xenopus laevis oocytes.
Xenopus laevis oocytes were prepared and injected using standard methods previously described and known in the art [Arena, J. P., Liu, K. K., Paress, P. S. & Cully, D. F. Mol. Pharmacol. 40, 368-374 (1991); Arena, J. P., Liu, K. K., Paress, P. S., Schaeffer, J. M. & Cully, D. F. Mol. Brain Res. 15, 339-348 (1992)]. Adult female Xenopus laevis were anesthetized with 0.17% tricaine methanesulfonate and the ovaries were surgically removed and placed in a dish consisting of (mM): NaCl 82.5, KCl 2, MgCl2 1, CaCl2 1.8, HEPES 5 adjusted to pH 7.5 with NaOH (OR-2). Ovarian lobes were broken open, rinsed several times, and gently shaken in OR-2 containing 0.2% collagenase (Sigma, Type 1A) for 2-5 hours. When approximately 50% of the follicular layers were removed, Stage V and VI oocytes were selected and placed in media consisting of (mM): NaCl 86, KCl 2, MgCl2 1, CaCl2 1.8, HEPES 5, Na pyruvate 2.5, theophylline 0.5, gentamicin 0.1 adjusted to pH 7.5 with NaOH (ND-96) for 24-48 hours before injection. Oocytes were injected with 50 nl of Dros GluCl RNA (0.01-1 mg/ml). Control oocytes were injected with 50 nl of water. Oocytes were incubated for 2-10 days in ND-96 before recording. Incubations and collagenase digestion were carried out at 18° C.
Recordings were made at room temperature in standard frog saline consisting of (mM): NaCl 115, KCl 2, MgCl2 1, CaCl2 1.8, HEPES 10, adjusted to pH 7.5 with NaOH. Oocytes were voltage-clamped using a standard two microelectrode amplifier (Dagan 8500 or TEV-200, Minneapolis, Minn.). Pipettes were filled with 3M KCl and had resistances between 0.5-3.0 megaohms. A plexiglass recording chamber (volume 200 μl) was constantly perfused at a rate of 10 ml/min. The recording chamber was connected to ground with a Ag/AgCl electrode. Data were acquired and analyzed using PCLAMP with a TL-1 interface (Axon Instruments, Foster City, Calif.). Membrane current at a holding potential of -80 mV was recorded. The amplitude of drug-sensitive current was determined by subtracting the holding current at -80 mV from the peak current obtained in the presence of drug. Data were filtered at 30 Hz and sampled at 16.6 Hz. Current/voltage relationships (I/V) and reversal potentials (Erev) were determined using a 1-3 sec voltage ramp over the voltage range of -110 to +80 mV. For the ramps, data were filtered at 0.3-3 kHz and sampled at 160 Hz. Current in drug free solution was subtracted from current in the presence of drug to obtain drug-sensitive current/voltage relationships.

T1 sequence (Q94900 23-456 I27V/K241R/S345N): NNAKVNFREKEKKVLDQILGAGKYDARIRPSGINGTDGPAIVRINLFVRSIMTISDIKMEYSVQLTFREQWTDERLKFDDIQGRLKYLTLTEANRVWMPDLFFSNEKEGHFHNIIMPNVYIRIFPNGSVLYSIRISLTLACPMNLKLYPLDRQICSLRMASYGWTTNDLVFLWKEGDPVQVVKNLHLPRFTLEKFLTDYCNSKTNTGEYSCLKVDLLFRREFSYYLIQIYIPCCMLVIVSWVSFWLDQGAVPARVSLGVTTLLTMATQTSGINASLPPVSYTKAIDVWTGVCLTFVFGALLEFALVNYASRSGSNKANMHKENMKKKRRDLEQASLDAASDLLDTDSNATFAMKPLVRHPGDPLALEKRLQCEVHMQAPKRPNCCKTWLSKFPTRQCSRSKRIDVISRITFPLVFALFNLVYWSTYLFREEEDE

C=C(C)C1C(=O)c2c3c(cc4c5c(n1c24)C1(C)C(CCC2C(C)(/C=C/C=C(\C)C(=O)O)C(O)CCC21C)C5)C1=CC(C)(C)OC(C)(C)C1C3O (centres unmarked) [Compound-1]
Time for current to fully return to baseline (after Compound-1, oocytes expressing Dros GluCl): up to 10 minutes
Reversibility of activated current (in words): slowly reversible
Activation of membrane current (in words) (oocytes expressing Dros GluCl): directly activated membrane current

NCCCC(=O)O [GABA]
Sensitivity of oocytes injected with Dros GluCl RNA (in words): insensitive

CC[C@H](C)[C@H]1O[C@]2(CC[C@@H]1C)C[C@@H]1C[C@@H](C/C=C(\C)[C@H](O[C@H]3C[C@H](OC)[C@@H](O[C@H]4C[C@H](OC)[C@@H](OP(=O)(O)O)[C@H](C)O4)[C@H](C)O3)[C@@H](C)/C=C/C=C3\CO[C@@H]4[C@H](O)C(C)=C[C@@H](C(=O)O1)[C@]34O)O2 [IVMPO4]
Current activated, % of maximal current (10 nM IVMPO4, oocytes expressing Dros GluCl): 20-40%
Reversibility of activated current (in words): irreversible
Activation of membrane current (in words) (oocytes expressing Dros GluCl): directly activated current
Concentration giving maximal activation of current (oocytes expressing Dros GluCl): 1 µM

CN[C@H](CC(=O)O)C(=O)O [N-methyl-D-aspartic acid]
Sensitivity of oocytes injected with Dros GluCl RNA (in words): insensitive

N[C@@H](CC(=O)O)C(=O)O [aspartate]
Emax at 1000 µM (read-out: % of maximal activation): 8%

N[C@@H](CCC(=O)O)C(=O)O [glutamate]
EC50: 30 µM

NCC(=O)O [glycine]
Sensitivity of oocytes injected with Dros GluCl RNA (in words): insensitive

NCCc1c[nH]cn1 [histamine]
Sensitivity of oocytes injected with Dros GluCl RNA (in words): insensitive

NC(C(=O)O)c1cc(O)no1 (centres unmarked) [ibotenate]
Activation of membrane current (in words) (oocytes expressing Dros GluCl): reversibly activated
Concentration giving maximal activation of current (oocytes expressing Dros GluCl): 100 µM

C=C(C)[C@H]1CN[C@H](C(=O)O)[C@H]1CC(=O)O [kainate]
Sensitivity of oocytes injected with Dros GluCl RNA (in words): insensitive

picrotoxin
Block of the current elicited with IVMPO4 (500 μM picrotoxin, oocytes expressing Dros GluCl): 13%
